According to patent US10081631B2, “2-(1H-indazol-3-yl)-1H-imidazo[4,5-C]pyridine and therapeutic uses thereof” (Samumed, LLC, priority 2014, dated 2018):

These compounds were tested on Wnt activity (Sp5-Luc reporter, SW480 colon carcinoma cells) (assay: Screening assay for Wnt activity: Sp5-Luc reporter gene assay in SW480 cells). Conditions: Homo sapiens, 42 h incubation, luminescence.
Format: cell-based
Text: The screening assay for Wnt activity is described as follows. Reporter cell lines can be generated by stably transducing cancer cell lines (e.g., colon cancer) or primary cells (e.g., IEC-6 intestinal cells) with a lentiviral construct that includes a Wnt-responsive promoter driving expression of the firefly luciferase gene.
SW480 colon carcinoma cells were transduced with a lentiviral vector expressing luciferase with a human Sp5 promoter consisting of a sequence of eight TCF/LEF binding sites. SW480 cells stably expressing the Sp5-Luc reporter gene and a hygromycin resistance gene were selected by treatment with 150 μg/ml of hygromycin for 7 days. These stably transduced SW480 cells were expanded in cell culture and used for all further screening activities. For Sp5-Luc reporter gene assays, the cells were plated at 10,000 cells/well in 96-well plates with growth medium containing 10% fetal calf serum and incubated overnight at 37° C. and 5% CO2. Each compound was dissolved in DMSO as a 10 mM stock in standard j-vials and used to prepare compound source plates in dose-response format with 3-fold serial dilutions and a 10 mM top concentration. Compound transfer from serially diluted source plates to assay plates containing the cells was accomplished using a pintool (Multimek 96, Beckman equipped with V&P Scientific FP1S50H pins) based liquid handling protocol. This protocol used a slotted pin to transfer 50 nl of compound from a source plate well to an assay plate well containing 50 μl of cells in growth medium. […] Control wells received 50 nl of DMSO treatment for normalization and calculating IC50 values. The treated cells were incubated at 37° C. and 5% CO2 for an additional forty-two hours. Following incubation, the growth medium was removed and 50 μl of BrightGlo luminescence reagent (Promega) was added to each well of the 96-well assay plates. The plates were placed on an orbital shaker for 5 min and then luminescence was quantified on the Victor3 (Perkin Elmer) plate reader. Readings were normalized to DMSO only treated cells, and normalized activities were utilized for IC50 calculations using the dose-response log (inhibitor) vs. response-variable slope (four parameters) nonlinear regression feature available in GraphPad Prism 5.0 or 6.0.

SMILES | IC50 [nM]
CN(C)Cc1cncc(-c2cc3c(-c4nc5c(-c6ccsc6)nccc5[nH]4)n[nH]c3cc2F)c1 [Compound 1132, 1-(5-(6-Fluoro-3-(4-(thiophen-3-yl)-1H-imidazo[4,5-c]pyridin-2-yl)-1H-indazol-5-yl)pyridin-3-yl)-N,N-dimethylmethanamine] | 3680
CC(C)CC(=O)Nc1cncc(-c2ccc3[nH]nc(-c4nc5c(-c6cc(F)cc(OCCN7CCCC7)c6)nccc5[nH]4)c3c2)c1 [Compound 2120, N-(5-(3-(4-(3-Fluoro-5-(2-(pyrrolidin-1-yl)ethoxy)phenyl)-1H-imidazo[4,5-c]pyridin-2-yl)-1H-indazol-5-yl)pyridin-3-yl)-3-methylbutanamide] | 305
CCCCC(=O)Nc1cncc(-c2ccc3[nH]nc(-c4nc5c(-c6ccccn6)nccc5[nH]4)c3c2)c1 [Compound 148, N-(5-(3-(4-(Pyridin-2-yl)-1H-imidazo[4,5-c]pyridin-2-yl)-1H-indazol-5-yl)pyridin-3-yl)pentanamide] | 248
CC(C)CC(=O)Nc1cncc(-c2ccc3[nH]nc(-c4nc5c(-c6cc(F)cc(OCCN(C)C)c6)nccc5[nH]4)c3c2)c1 [Compound 2076, N-(5-(3-(4-(3-(2-(Dimethylamino)ethoxy)-5-fluorophenyl)-1H-imidazo[4,5-c]pyridin-2-yl)-1H-indazol-5-yl)pyridin-3-yl)-3-methylbutanamide] | 370
Fc1cccc(-c2nccc3[nH]c(-c4n[nH]c5ccc(-c6cncc(OCc7ccccc7)c6)cc45)nc23)c1 [Compound 1782, 2-(5-(5-(Benzyloxy)pyridin-3-yl)-1H-indazol-3-yl)-4-(3-fluorophenyl)-1H-imidazo[4,5-c]pyridine] | 575
CN(C)Cc1cncc(-c2cc(F)c3[nH]nc(-c4nc5c(-c6ccsc6)nccc5[nH]4)c3c2)c1 [Compound 688, 1-(5-(7-Fluoro-3-(4-(thiophen-3-yl)-1H-imidazo[4,5-c]pyridin-2-yl)-1H-indazol-5-yl)pyridin-3-yl)-N,N-dimethylmethanamine] | 415
CN(C)Cc1cncc(-c2ccc3[nH]nc(-c4nc5c(-c6cccc(F)c6)nccc5[nH]4)c3c2F)c1 [Compound 1339, 1-(5-(4-Fluoro-3-(4-(3-fluorophenyl)-1H-imidazo[4,5-c]pyridin-2-yl)-1H-indazol-5-yl)pyridin-3-yl)-N,N-dimethylmethanamine] | 1180
CC(=O)c1ccc(-c2nccc3[nH]c(-c4n[nH]c5ccc(-c6cncc(NC(=O)CC(C)(C)C)c6)cc45)nc23)s1 [Compound 380, N-(5-(3-(4-(5-Acetylthiophen-2-yl)-1H-imidazo[4,5-c]pyridin-2-yl)-1H-indazol-5-yl)pyridin-3-yl)-3,3-dimethylbutanamide] | 187
c1cncc(-c2ccc3[nH]nc(-c4nc5c(N6CCOCC6)nccc5[nH]4)c3c2)c1 [Compound 2272, 4-(2-(5-(Pyridin-3-yl)-1H-indazol-3-yl)-1H-imidazo[4,5-c]pyridin-4-yl) morpholine] | 20

More lines, now with the values ahead:

IC50 [nM] | SMILES
36 | O=C(Cc1ccccc1)Nc1cncc(-c2ccc3[nH]nc(-c4nc5c(-c6ccncc6)nccc5[nH]4)c3c2)c1 [Compound 114, 2-Phenyl-N-(5-(3-(4-(pyridin-4-yl)-1H-imidazo[4,5-c]pyridin-2-yl)-1H-indazol-5-yl)pyridin-3-yl)acetamide]
70 | CN1CCN(c2nccc3[nH]c(-c4n[nH]c5ccc(-c6cn[nH]c6)cc45)nc23)CC1 [Compound 1915, 2-(5-(1H-pyrazol-4-yl)-1H-indazol-3-yl)-4-(4-methylpiperazin-1-yl)-1H-imidazo[4,5-c]pyridine]
23 | Cc1ncc(-c2ccc3[nH]nc(-c4nc5c(-c6cccc(F)c6)nccc5[nH]4)c3c2)n1C [Compound 1773, 2-(5-(1,2-Dimethyl-1H-imidazol-5-yl)-1H-indazol-3-yl)-4-(3-fluorophenyl)-1H-imidazo[4,5-c]pyridine]
88.1 | CC(C)Nc1cncc(-c2ccc3[nH]nc(-c4nc5c(N6CCCCC6)nccc5[nH]4)c3c2)c1 [Compound 168, N-Isopropyl-5-(3-(4-(piperidin-1-yl)-1H-imidazo[4,5-c]pyridin-2-yl)-1H-indazol-5-yl)pyridin-3-amine]
> 10000 | O=C(Nc1cncc(-c2ccc3[nH]nc(-c4nc5c(-c6ccccn6)nccc5[nH]4)c3c2)c1)c1ccccc1 [Compound 141, N-(5-(3-(4-(Pyridin-2-yl)-1H-imidazo[4,5-c]pyridin-2-yl)-1H-indazol-5-yl)pyridin-3-yl)benzamide]
96 | CN(C)Cc1cncc(-c2cc(F)c3[nH]nc(-c4nc5c(-c6cc(F)cc(CNS(C)(=O)=O)c6)nccc5[nH]4)c3c2)c1 [Compound 844, N-(3-(2-(5-(5-((Dimethylamino)methyl)pyridin-3-yl)-7-fluoro-1H-indazol-3-yl)-1H-imidazo[4,5-c]pyridin-4-yl)-5-fluorobenzyl)methanesulfonamide]
20 | COc1cc(F)cc(-c2nccc3[nH]c(-c4n[nH]c5ccc(-c6cncc(NC(=O)CC(C)C)c6)cc45)nc23)c1 [Compound 2208, N-(5-(3-(4-(3-Fluoro-5-methoxyphenyl)-1H-imidazo[4,5-c]pyridin-2-yl)-1H-indazol-5-yl)pyridin-3-yl)-3-methylbutanamide]
20 | Cn1cc(-c2ccc3[nH]nc(-c4nc5c(N6CCC(F)(F)CC6)nccc5[nH]4)c3c2)cn1 [Compound 2281, 4-(4,4-Difluoropiperidin-1-yl)-2-(5-(1-methyl-1H-pyrazol-4-yl)-1H-indazol-3-yl)-1H-imidazo[4,5-c]pyridine]
315 | Fc1cncc(-c2ccc3[nH]nc(-c4nc5c(N6CCC(F)(F)CC6)nccc5[nH]4)c3c2)c1 [Compound 2277, 4-(4,4-Difluoropiperidin-1-yl)-2-(5-(5-fluoropyridin-3-yl)-1H-indazol-3-yl)-1H-imidazo[4,5-c]pyridine]
637 | CN(C)Cc1cncc(-c2cc3c(-c4nc5c(-c6cc(F)cc(CNS(C)(=O)=O)c6)nccc5[nH]4)n[nH]c3cc2F)c1 [Compound 1288, N-(3-(2-(5-(5-((Dimethylamino)methyl)pyridin-3-yl)-6-fluoro-1H-indazol-3-yl)-1H-imidazo[4,5-c]pyridin-4-yl)-5-fluorobenzyl)methanesulfonamide]
50 | FC1(F)CCN(c2nccc3[nH]c(-c4n[nH]c5ccc(-c6cccnc6)cc45)nc23)CC1 [Compound 2273, 4-(4,4-Difluoropiperidin-1-yl)-2-(5-(pyridin-3-yl)-1H-indazol-3-yl)-1H-imidazo[4,5-c]pyridine]
3060 | CN(C)Cc1cncc(-c2ccc3[nH]nc(-c4nc5c(-c6ccsc6)nccc5[nH]4)c3c2F)c1 [Compound 1573, 1-(5-(4-Fluoro-3-(4-(thiophen-3-yl)-1H-imidazo[4,5-c]pyridin-2-yl)-1H-indazol-5-yl)pyridin-3-yl)-N,N-dimethylmethanamine]
1450 | CN(C)Cc1cncc(-c2cc3c(-c4nc5c(-c6cccc(F)c6)nccc5[nH]4)n[nH]c3cc2F)c1 [Compound 898, 1-(5-(6-Fluoro-3-(4-(3-fluorophenyl)-1H-imidazo[4,5-c]pyridin-2-yl)-1H-indazol-5-yl)pyridin-3-yl)-N,N-dimethylmethanamine]
97.1 | CN1CCN(c2nccc3[nH]c(-c4n[nH]c5ccc(-c6cncc(N)c6)cc45)nc23)CC1 [Compound 211, 5-(3-(4-(4-Methylpiperazin-1-yl)-1H-imidazo[4,5-c]pyridin-2-yl)-1H-indazol-5-yl)pyridin-3-amine]
